Experimental data: US9725414B2, “Fungicidal N-bicycloalkyl and N-tricycloalkyl pyrazole-4-(thio)carboxamide derivatives” (priority 2011, dated 2017)

Experiments:
Alternaria solani = assay: Example C: in vivo preventive test on Alternaria solani (tomato); details: 500 ppm of active ingredient, evaluated 7 days after inoculation
Protocol: (§1) In Vivo Preventive Test on Alternaria solani (Tomato) Solvent: 49 parts by weight of N,N-dimethylformamide Emulsifier: 1 part by weight of alkylarylpolyglycolether To produce a suitable preparation of active compound, 1 part by weight of active compound is mixed with the stated amounts of solvent and emulsifier, and the concentrate is diluted with water to the desired concentration. To test for preventive activity, young plants are sprayed with the preparation of active compound at the stated rate of application. One day after this treatment, the plants are inoculated with an aqueous spore suspension of Alternaria solani. The plants remain for one day in an incubation cabinet at approximately 22° C. and a relative atmospheric humidity of 100%. Then the plants are placed in an incubation cabinet at approximately 20° C. and a relative atmospheric humidity of 96%.

Sphaerotheca fuliginea = assay: Example B: in vivo preventive test on Sphaerotheca fuliginea (powdery mildew on cucurbits), gherkin plants; details: 500 ppm of active ingredient, grading 12 days after contamination
Protocol: In Vivo Preventive Test on Sphaerotheca fuliginea (Powdery Mildew on Cucurbits) […] Gherkin plants (“Vert petit de Paris” variety), sown in starter cups on a 50/50 peat soil-pozzolana substrate and grown at 24° C. are treated at the Z11 cotyledon stage by spraying with the active ingredient prepared as described above. Plants, used as controls, are treated with the mixture of acetone/tween/DMSO/water not containing the active material. After 24 hours, the plants are contaminated by spraying the cotyledons with an aqueous suspension of Sphaerotheca fuliginea spores (100 000 spores per mL). The spores are collected from infected plants.

Pyrenophora teres [1] = assay: Example E: in vivo preventive test on Pyrenophora teres (barley), DMF/emulsifier preparation; details: 500 ppm of active ingredient, evaluated 7-9 days after inoculation
Protocol: as §1, with “Pyrenophora teres (Barley)” for “Alternaria solani (Tomato)”, “alkylaryl polyglycol ether” for “alkylarylpolyglycolether”, “Pyrenophora teres.” for “Alternaria solani.”, “48 hours” for “one day”, “at” for “at approximately”, “100%.” for “100%. Then the plants are placed in an incubation cabinet at approximately 20° C. and a relative atmospheric humidity of 96%.”

Uromyces appendiculatus = assay: Example Q: in vivo preventive test on Uromyces appendiculatus (bean rust); details: Uromyces appendiculatus on bean plants, 500 ppm of active ingredient, grading 11 days after contamination
Protocol: In Vivo Preventive Test on Uromyces appendiculatus (Bean Rust) […] Bean plants (“Saxa” variety), sown in starter cups on a 50/50 peat soil pozzolana substrate and grown at 24° C., are treated at the 2 leaf stage (9 cm height) by spraying with the active ingredient prepared as described above. Plants, used as controls, are treated with the mixture of acetone/tween/DMSO/water not containing the active material. After 24 hours, the plants are contaminated by spraying the leaves with an aqueous suspension of Uromyces appendiculatus spores (150 000 spores per mL). The spores are collected from infected plants and are suspended in water containing 2.5 mL/L of Tween 80 at 10%. […] Grading (% of efficacy) is carried out 11 days after the contamination, in comparison with the control plants.

Puccinia recondita = assay: Example M: in vivo preventive test on Puccinia recondita (brown rust on wheat); details: 500 ppm of active ingredient, grading 12 days after contamination
Protocol: In Vivo Preventive Test on Puccinia recondita (Brown Rust on Wheat) […] Wheat plants (“Scipion” variety), sown in starter cups on a 50/50 peat soil pozzolana substrate and grown at 22° C., are treated at the 1 leaf stage (10 cm height) by spraying with the active ingredient prepared as described above. Plants, used as controls, are treated with the mixture of acetone/tween/DMSO/water not containing the active material. After 24 hours, the plants are contaminated by spraying the leaves with an aqueous suspension of Puccinia recondite spores (100 000 spores per mL). The spores are collected from an infected plant and are suspended in water containing 2.5 mL/L of Tween 80 at 10%. […] Grading (% of efficacy) is carried out 12 days after the contamination, in comparison with the control plants.

Septoria tritici = assay: Example I: in vivo preventive test on Septoria tritici (wheat), acetone/tween/DMSO preparation; details: 500 ppm of active ingredient, grading 24 days after contamination
Protocol: In Vivo Preventive Test on Septoria tritici (Wheat) […] Wheat plants (“Scipion” variety), sown in starter cups on a 50/50 peat soil pozzolana substrate and grown at 22° C., are treated at the 1 leaf stage (10 cm height) by spraying with the active ingredient prepared as described above. Plants, used as controls, are treated with the mixture of acetone/tween/DMSO/water not containing the active material. After 24 hours, the plants are contaminated by spraying the leaves with an aqueous suspension of cryopreserved Septoria tritici spores (500 000 spores per mL). The contaminated wheat plants are incubated for 72 hours at 18° C. and at 100% relative humidity, and then for 21 days at 90% relative humidity. Grading (% of efficacy) is carried out 24 days after the contamination, in comparison with the control plants.

Alternaria brassicae = assay: Example D: in vivo preventive test on Alternaria brassicae (leaf spot on radish); details: 500 ppm of active ingredient, grading 6 days after contamination
Protocol: In Vivo Preventive Test on Alternaria brassicae (Leaf Spot on Radish) […] Radish plants (“Pernod Clair” variety), sown in starter cups on a 50/50 peat soil pozzolana substrate and grown at 17° C., are treated at the cotyledon stage by spraying with the active ingredient prepared as described above. Plants, used as controls, are treated with the mixture of acetone/tween/DMSO/water not containing the active material. After 24 hours, the plants are contaminated by spraying the cotyledons with an aqueous suspension of Alternaria brassicae spores (50 000 spores per mL). The spores are collected from a 15-day-old culture. The contaminated radish plants are incubated at 20° C. and at 100% relative humidity. Grading (% of efficacy) is carried out 6 days after the contamination, in comparison with the control plants.

Botrytis cinerea = assay: Example P: in vivo preventive test on Botrytis cinerea (grey mould), gherkin plants; details: 500 ppm of active ingredient, grading 4 to 5 days after contamination
Protocol: In Vivo Preventive Test on Botrytis cinerea (Grey Mould) […] Gherkin plants (“Vert petit de Paris” variety), sown in starter cups on a 50/50 peat soil pozzolana substrate and grown at 24° C. are treated at the Z11 cotyledon stage by spraying with the active ingredient prepared as described above. Plants, used as controls, are treated with the mixture of acetone/tween/DMSO/water not containing the active material. After 24 hours, the plants are contaminated by spraying the cotyledons with an aqueous suspension of cryopreserved Botrytis cinerea spores (50 000 spores per mL). The spores are suspended in a nutrient solution composed of 10 g/L of PDB, 50 g/L of D-Fructose, 2 g/L of NH4NO3 and 1 g/L of KH2PO4. The contaminated gherkin plants are incubated at 17° C. and at 90% relative humidity. Grading (% of efficacy) is carried out 4 to 5 days after the contamination, in comparison with the control plants.

Pyrenophora teres [2] = assay: Example F: in vivo preventive test on Pyrenophora teres (barley), acetone/tween/DMSO preparation; details: 500 ppm of active ingredient, barley, grading 14 days after contamination
Protocol: In Vivo Preventive Test on Pyrenophora teres (Barley) […] Barley plants (“Plaisant” variety), sown in starter cups on a 50/50 peat soil pozzolana substrate and grown at 22° C., are treated at the 1 leaf stage (10 cm height) by spraying with the active ingredient prepared as described above. Plants, used as controls, are treated with the mixture of acetone/tween/DMSO/water not containing the active material. After 24 hours, the plants are contaminated by spraying the leaves with an aqueous suspension of Pyrenophora teres spores (12 000 spores per mL). The spores are collected from a 12-day-old culture. […] Grading (% of efficacy) is carried out 14 days after the contamination, in comparison with the control plants.

[3] = log P by HPLC on reversed-phase column (C 18), EEC Directive 79831 Annex V.A8; format: physicochemical; details: HPLC reversed-phase C 18, 40° C., 0.1% aqueous formic acid and acetonitrile gradient; several values = mixture of two or more isomers
Protocol: In table 1, the log P values were determined in accordance with EEC Directive 79831 Annex V.A8 by HPLC (High Performance Liquid Chromatography) on a reversed-phase column (C 18), using the method described below: Temperature: 40° C.; Mobile phases: 0.1% aqueous formic acid and acetonitrile; linear gradient from 10% acetonitrile to 90% acetonitrile. Calibration was carried out using unbranched alkan-2-ones (comprising 3 to 16 carbon atoms) with known log P values (determination of the log P values by the retention times using linear interpolation between two successive alkanones). lambda-max-values were determined using UV-spectra from 200 nm to 400 nm and the peak values of the chromatographic signals.

Structure (SMILES)	Efficacy (Alternaria solani) [%]	Efficacy (Sphaerotheca fuliginea) [%]	Efficacy (Pyrenophora teres [1]) [%]	Efficacy (Uromyces appendiculatus) [%]	Efficacy (Puccinia recondita) [%]	Efficacy (Septoria tritici) [%]	Efficacy (Alternaria brassicae) [%]	Efficacy (Botrytis cinerea) [%]	Efficacy (Pyrenophora teres [2]) [%]	logP [3]
Cn1nc(C(F)F)c(C(=O)N(C2CC2)C2CCC3CCCC3C2)c1F (mixture of isomers) [Example 22]	100	100	100	100	100	88	93	–	–	–
CC(C1CC2C=CC1C2)N(C(=O)c1c(C(F)F)nn(C)c1F)C1CC1 (mixture of isomers) [Example 101]	–	100	–	–	–	100	92	98	100	–
CC(C1CC2C=CC1C2)N(C(=O)c1cn(C)nc1C(F)F)C1CC1 (mixture of isomers) [Example 102]	–	100	–	92	90	75	92	95	100	–
Cn1nc(C(F)F)c(C(=O)NC2CCC3CCCC32)c1Cl (centres unmarked) [Example 3]	–	–	–	100	75	92	90	95	–	3.09
Cn1nc(C(F)F)c(C(=O)N(C2CC2)C2CCC3CCCC32)c1F (centres unmarked) [Example 4]	–	–	–	–	78	–	100	80	100	3.55
Cn1nc(C(F)F)c(C(=O)N(C2CC2)C2CCC3CCCC32)c1F (centres unmarked) [Example 5]	–	98	–	100	100	100	100	–	97	3.65
Cn1cc(C(=O)N(C2CC2)C2CCC3CCCC32)c(C(F)F)n1 (centres unmarked) [Example 6]	–	100	–	77	–	–	100	100	100	3.02
Cn1cc(C(=O)N(C2CC2)C2CCC3CCCC32)c(C(F)F)n1 (centres unmarked) [Example 7]	–	100	–	94	98	97	80	–	100	3.19
CON(C(=O)c1c(C(F)F)nn(C)c1F)C1CCC2CCCCC21 (centres unmarked) [Example 10]	–	100	–	100	100	93	100	–	93	3.72
Cn1nc(C(F)F)c(C(=O)N(C2CC2)C2CCCC3CCCCC32)c1Cl (centres unmarked) [Example 32]	–	100	–	89	98	80	100	–	97	4.68
CC1C(NC(=O)c2c(C(F)F)nn(C)c2F)CC2CC1C2(C)C (centres unmarked) [Example 49]	–	–	–	–	–	–	96	98	88	3.61
CC1C(NC(=O)c2c(C(F)F)nn(C)c2F)CC2CC1C2(C)C (centres unmarked) [Example 50]	–	90	–	–	–	97	80	99	88	3.61
Cn1nc(C(F)F)c(C(=O)N(CC2CCCC3CCCCC32)C2CC2)c1Cl (centres unmarked) [Example 67]	–	100	–	87	97	94	97	–	98	5.08
Cn1cc(C(=O)N(CC2(Cc3ccccc3)CC3CCC2C3)C2CC2)c(C(F)F)n1 (centres unmarked) [Example 70]	–	98	–	88	–	96	91	100	79	4.32
Cn1nc(C(F)F)c(C(=O)NCC2C3CC4CC(C3)CC2C4)c1F (centres unmarked) [Example 90]	–	–	–	–	–	92	90	100	81	3.68
Cn1nc(C(F)F)c(C(=O)NCC2C3CC4CC(C3)CC2C4)c1Cl (centres unmarked) [Example 91]	–	–	–	–	–	–	96	99	75	3.90
Cn1cc(C(=O)NCC2C3CC4CC(C3)CC2C4)c(C(F)F)n1 (centres unmarked) [Example 92]	–	–	–	–	–	83	96	100	–	3.27
